{"source": "patent EP0390718A1", "about": "“Process for preparing new 1-diphenylmethylpiperidine derivatives” (FABRICA ESPANOLA DE PRODUCTOS QUIMICOS Y FARMACEUTICOS, …, priority 1989, dated 1990)", "key": {"[1]": {"molecular_target": "guinea pig isolated ileum contractions caused by histamine (Cavia porcellus, UniProt P31389)", "sequence (P31389 whole entry)": "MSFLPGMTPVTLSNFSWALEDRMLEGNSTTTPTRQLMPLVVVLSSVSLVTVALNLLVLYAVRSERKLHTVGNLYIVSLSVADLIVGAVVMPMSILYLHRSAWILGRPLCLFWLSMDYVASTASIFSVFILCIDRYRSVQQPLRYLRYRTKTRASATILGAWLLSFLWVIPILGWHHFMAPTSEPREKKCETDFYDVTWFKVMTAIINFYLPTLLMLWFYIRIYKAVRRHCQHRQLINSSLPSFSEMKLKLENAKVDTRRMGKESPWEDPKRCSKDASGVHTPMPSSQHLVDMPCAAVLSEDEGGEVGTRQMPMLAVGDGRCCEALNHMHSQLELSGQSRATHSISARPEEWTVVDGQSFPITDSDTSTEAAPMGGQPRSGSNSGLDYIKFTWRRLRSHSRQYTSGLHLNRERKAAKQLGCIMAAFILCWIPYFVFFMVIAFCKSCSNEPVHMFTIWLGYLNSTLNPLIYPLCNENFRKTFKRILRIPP", "test": "guinea pig isolated ileum contractions caused by histamine (in vitro antihistaminic activity)", "format": "cell-based", "settings": "drug concentration inhibiting 50% of the response to histamine; 10 minutes of incubation with each concentration; Tyrode solution at 37°C; unit M only printed in method b12 (10⁻⁸-10⁻⁵ M); read-out: CI50 (the source's name)"}, "Swiss male mice": {"tested_on": "Swiss male mice", "test": "preliminary study of the main pharmacologic effects, observation of symptoms and reflexes in mice", "format": "in vivo", "settings": "300 mg/kg", "protocol": "A preliminary study has been made of the main pharmacologic effects using Swiss male mice distributed in groups of four animals; each group was administered one of the products in doses of 300 mg/kg and the animals began to be observed, logging the time when symptoms appeared or given reflexes decreased: spontaneous activity, appearance of stereotype, trembling, convulsions, abnormal body position, loss of reflexes, extent of palpebral aperture, salivation, pyloerection, hypothermia, lachrymation or change in skin colour; observation lasted for 30 minutes and was repeated 1, 2, 3, 4 and 24 hours after treatment; the reference compound chosen was a well-known antiallergic, ketotyphene."}, "[2]": {"settings": "Swiss male mice, groups of four, observed 30 minutes and 1, 2, 3, 4 and 24 hours after treatment"}}}
{"molecule": "1-[(4-chlorophenyl)methyl]-N-[1-(diphenylmethyl)piperidine-4-yl]-2-amino-1 H-benzimidazol [Example 4]", "values": [{"measurement": "IC50", "setting": "[1]", "result": 63, "unit": "nM"}, {"measurement": "Maximum effect observed/No. of animals Decreased spontaneous activity", "setting": "Swiss male mice; [2]", "result": 0}]}
{"molecule": "CN1CCC(=C2c3ccccc3CC(=O)c3sccc32)CC1", "note": "[Ketotiphene]", "values": [{"measurement": "Maximum effect observed/No. of animals Body reflex loss", "setting": "Swiss male mice; [2]", "result": "1/4"}, {"measurement": "Maximum effect observed/No. of animals Decreased spontaneous activity", "setting": "Swiss male mice; [2]", "result": "2/4"}, {"measurement": "Maximum effect observed/No. of animals Hearing reflex loss", "setting": "Swiss male mice; mouse, in vivo", "result": "-"}, {"measurement": "Maximum effect observed/No. of animals Hypothermia", "setting": "Swiss male mice; mouse, in vivo", "result": "4/4"}, {"measurement": "Maximum effect observed/No. of animals Palpebral potosis", "setting": "Swiss male mice; mouse, in vivo", "result": "1/4"}]}
{"molecule": "N-[(1-diphenylmethyl)piperidine-4-yl]-1-[(4-fluorophenyl)methyl]-2-amino-1 H-benzimidazol [Example 5]", "values": [{"measurement": "IC50", "setting": "[1]", "result": 56, "unit": "nM"}, {"measurement": "Maximum effect observed/No. of animals Decreased spontaneous activity", "setting": "Swiss male mice; [2]", "result": 0}]}
